These results are taken from patent publication US7041458B2, “Methods and reagents for determining protein S” (priority 1996, dated 2006).

In assay [1] the target is T1, protein S-C4BP interaction (Homo sapiens, UniProt P20851).
T1 construct: C4BPβ was first isolated from human plasma in the form of the protein S-C4BP complex; from tissue; host or cells: human plasma
T1 sequence (P20851 18-252): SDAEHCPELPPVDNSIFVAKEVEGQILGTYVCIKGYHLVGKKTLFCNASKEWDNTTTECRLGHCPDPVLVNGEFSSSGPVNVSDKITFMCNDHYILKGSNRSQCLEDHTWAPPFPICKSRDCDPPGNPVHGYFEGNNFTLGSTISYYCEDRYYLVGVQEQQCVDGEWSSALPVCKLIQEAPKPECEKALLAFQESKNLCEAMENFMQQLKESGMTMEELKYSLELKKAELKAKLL
T1 sequence (P04003 49-597 partner): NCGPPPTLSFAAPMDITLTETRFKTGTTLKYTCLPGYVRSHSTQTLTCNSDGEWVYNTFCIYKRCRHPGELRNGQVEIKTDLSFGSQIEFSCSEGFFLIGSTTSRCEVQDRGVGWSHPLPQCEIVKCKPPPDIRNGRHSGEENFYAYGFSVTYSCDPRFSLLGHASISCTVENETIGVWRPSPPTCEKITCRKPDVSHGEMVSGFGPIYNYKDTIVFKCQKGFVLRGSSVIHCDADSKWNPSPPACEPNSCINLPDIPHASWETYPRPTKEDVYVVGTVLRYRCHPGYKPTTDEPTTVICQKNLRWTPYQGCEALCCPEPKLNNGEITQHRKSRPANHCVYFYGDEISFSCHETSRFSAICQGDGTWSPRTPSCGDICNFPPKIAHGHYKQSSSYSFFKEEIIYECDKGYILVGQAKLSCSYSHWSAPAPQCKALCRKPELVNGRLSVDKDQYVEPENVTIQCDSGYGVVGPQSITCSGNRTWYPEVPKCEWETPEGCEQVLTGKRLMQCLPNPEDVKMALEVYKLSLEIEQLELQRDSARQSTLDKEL
In words: Peptide inhibition of the protein S-C4BP interaction in microtiter plates (equilibrium binding assay, 125I-labelled protein S tracer, immobilized C4BP). Particulars: displacement of 125I-labelled protein S from immobilized C4BP, EDTA buffer; read-out: half-maximum inhibition. The procedure:
D. Peptide Inhibition of the Protein S-C4BP Interaction in Microtiter Plates.
Microtiter plates were coated with C4BP, 50 μl/well, 10 μg/ml in 0.075 M sodium carbonate buffer, pH 9.6. The plates were incubated over night at 4° C. and then washed with TBS, pH 7.5, containing 0.1% Tween 20. […] The wells were then washed and the amount of bound protein S detected using a γ-counter.
As disclosed in Section D, the synthetic peptides were tested for their ability to displace binding of a ^125I-labelled protein S tracer to immobilized C4BP (FIG. 5A).
(§1) In these figures, peptide inhibition of the protein S-C4BP interaction is shown as the amount of protein S bound (relative to the amount bound in the absence of peptide) versus concentration of the nine peptides listed in Table 1: (o) SL1, (♦) SL2, (□) SL3, (+) SL4, (⋄) SL5, (●) SL6, (▾) SL7, (Δ) BD4 & (∇) BD6. In FIG. 5A, the result from an equilibrium binding assay using immobilized C4BP in microtiter wells and radiolabelled human protein S is shown. […] In FIG. 5B, the result from surface plasmon resonance assay on a BIAcore™ sensorchip is shown. The amount of protein S bound, X, was calculated from the observed signal intensity, S, compared to the maximum signal intensity in the absence of peptide Smax, as […].
On the technique in general: Displacement assays read how much labelled ligand stays bound in the presence of the test substance.

In assay [2] the target is T1, protein S-C4BP interaction. Briefly: Peptide inhibition of the protein S-C4BP interaction by surface plasmon resonance (BIAcore, immobilized C4BP). Type of assay: binding. The note with it: for IC50: 50 nM human protein S, immobilized C4BP, read-out: half maximum inhibition, peptide concentration; for effect on binding of human protein S to C4BP (SPR response): 50 nM protein S, peptide up to 100 μM (2000-fold excess); for inhibition of the protein S-C4BP interaction (summary of the above tests): up to 2000-fold excess over protein S. How it is done: E. Peptide Inhibition of the Protein S-C4BP Interaction According to Surface Plasmon Resonance Studies.
The surface plasmon resonance studies were performed using a BIAcore™ apparatus from Pharmacia Biosensor AB. Immobilization of C4BP to the dextran coated gold surface of a sensorchip was performed at a flow rate of 5 μl/min, using HC as flow buffer. Equal volumes of 0.1 M NHS and 0.1 M EDC were first mixed, whereafter 30 μl of the mixture was flown over the sensorchip surface to activate the carboxymethylated dextran. C4BP was then injected over the sensorchip (40 μl of a 60 μg/ml solution in 10 mM NaOAc at pH 4.75), whereafter unreacted NHS-ester groups were blocked by 15 μl 1M ethanolamine (pH 8.5). The system was regenerated by addition of 15 μl 0.1 M HCl, which removes all non-covalently bound molecules. The immobilized amount of C4BP was 8000 RU. Protein S association was monitored with 50 nM human protein S in HC buffer in a continuous flow of 1 μl per minute during 45 minutes. The ability of each peptide to inhibit the protein S binding was studied by following the association to C4BP for mixtures of protein S and peptide. In BIAcore™, the total amount of bound material is measured, and the peptides are 25-fold smaller than protein S, inhibition of protein S-binding by peptide binding will drastically lower the observed response during the association phase. The percent protein S bound, X, was calculated as X=(S−0.04Smax)/0.96Smax where S is the measured response and Smax is the response obtained in the absence of peptide.
As disclosed in Section E, the ability of the synthetic peptides to inhibit the binding of human protein S to C4BP was also studied using surface plasmon resonance on a BIA-core™ system.
as §1
Background: SPR reads the build-up and loss of mass on a sensor chip optically.

Assay [3] addresses T2, C4BP (Homo sapiens, UniProt P20851).
T2 sequence (P20851 18-252): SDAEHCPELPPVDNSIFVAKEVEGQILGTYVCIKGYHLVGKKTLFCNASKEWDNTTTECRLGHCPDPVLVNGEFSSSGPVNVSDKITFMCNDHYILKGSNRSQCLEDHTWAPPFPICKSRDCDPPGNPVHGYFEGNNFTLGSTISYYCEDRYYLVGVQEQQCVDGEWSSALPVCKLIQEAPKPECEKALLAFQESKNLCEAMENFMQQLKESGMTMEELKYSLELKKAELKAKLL
T2 sequence (P04003 49-597 partner): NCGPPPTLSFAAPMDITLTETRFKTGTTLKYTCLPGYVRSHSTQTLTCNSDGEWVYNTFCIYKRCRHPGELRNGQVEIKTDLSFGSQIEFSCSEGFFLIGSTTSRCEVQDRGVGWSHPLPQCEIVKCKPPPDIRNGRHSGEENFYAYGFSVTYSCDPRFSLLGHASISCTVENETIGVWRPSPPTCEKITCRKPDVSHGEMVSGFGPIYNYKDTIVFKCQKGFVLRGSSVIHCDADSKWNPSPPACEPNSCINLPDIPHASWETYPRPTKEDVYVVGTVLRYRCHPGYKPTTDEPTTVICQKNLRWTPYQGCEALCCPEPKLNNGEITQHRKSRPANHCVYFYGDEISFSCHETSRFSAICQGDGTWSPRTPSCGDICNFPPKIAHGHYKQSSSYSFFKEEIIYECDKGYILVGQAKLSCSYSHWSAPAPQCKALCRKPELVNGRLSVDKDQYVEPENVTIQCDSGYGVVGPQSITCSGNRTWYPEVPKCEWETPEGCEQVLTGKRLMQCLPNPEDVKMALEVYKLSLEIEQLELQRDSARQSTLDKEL
In words: Fluorescence polarization titration of peptides with C4BP (results not shown). Type of assay: binding. Particulars: read-out: dissociation constant KD of the peptide-C4BP complex. The source says: The difference in KD observed for the peptide and protein might in part be due to post translational modification of the protein.
For orientation: In fluorescence polarisation assays a small probe gives low polarisation when free and higher when bound to something large.

Bridges are numbered along the chain shown (N, C = ends). Where no end group is shown, it is not given here.

Turning to SGIAQFHIDYNNVSSAEGWHVN [SL6], the IC50 lay in the range of 100 to 200 µM in assay [1] and 30 to 120 µM in assay [2]. Besides, the Kd (as a rule, the free concentration of one partner at which half of the binding sites on the other are occupied at equilibrium, for simple one-to-one binding) in assay [3] is no more than 1000 nM.
Regarding “YNGCMEVNINGVQLDLDEAISKHNDIRAHSCPSV (disulfide 4-31 (inferred)) [BD6, reference compound]”, in assay [2], the “effect on binding of human protein S to C4BP (SPR response)” value (shortened to “effect on binding of human protein S”) is “the same response was observed as with protein S alone” and the “inhibition of the protein S-C4BP interaction (summary of the above tests)” value (“inhibition” below) is reported as “gave no inhibitory effect”. Also, the “inhibition” value in assay [2] (listed as 595–628) is on record as “did not show any inhibitory effect”.
For KPENGLLETKVYFAGFPRK [SL1], in assay [2], the “effect on binding of human protein S” value is “the same response was observed as with protein S alone”.
Consider “LVTVEKGSYYPGSGIAQFHIDYNNVSSAEGWHVN [SL7]”, for which the values for the IC50 in assay [1] and in assay [2] were 100 to 200 µM and 30 to 120 µM, respectively. In addition, the Kd in assay [3] is no more than 1000 nM.
Consider EKGSYYPGSGIAQFHIDYNNVS [SL2], for which the IC50 in assay [1] lay within 100 to 200 µM; in assay [2] it was 30 to 120 µM. Further, the Kd in assay [3] is no more than 1000 nM.
Take LVTVEKGSYYPGSGIAQ [SL5]: the “effect on binding of human protein S” value in assay [2] is on record as “the same response was observed as with protein S alone”.
With “LDGCIRSWNLMKQGASGIKEIIQEKQNKHCLVT (disulfide 4-30 (inferred)) [BD4, reference compound]”, in assay [2], the “effect on binding of human protein S” value is listed as “the same response was observed as with protein S alone” and the “inhibition” value is “gave no inhibitory effect”. The “inhibition” value in assay [2] (listed as 405–437) is reported as “did not show any inhibitory effect”.
